The text below walks through data of patent US5798362A, “Quinazolinyl-amino derivatives having α-antagonist activity” (Recordati S.A. Chemical and Pharmaceutical Company, priority 1994, dated 1998).

In data set [1] the target is α1-receptors ([3H]prazosin). As to the kind of experiment: [3H]Prazosin binding (α1-receptors), rat cerebral cortices. The settings on record: rat cerebral cortex, 0.35 nM [3H]prazosin, 25° C., 30 min; read-out: [3H] prazosine IC50. How it is done:
Rat cerebral cortices were homogenized in 50 volumes of original wet weight of ice-cold 50 mM Tris-HCl buffer pH 7.4. The homogenates were centrifuged at 48,000 × g for 10 minutes, and the pellets were resuspended in the same volume of ice-cold buffer, centrifuged and resuspended two more times. […] The incubations were terminated by rapid filtration through Whatman GF/B, filters using a Brandel cell harvester and the filters were washed with 3×3 ml of ice-cold buffer. The radioactivity retained on the filters was determined by liquid scintillation counting. Data analysis The inhibition of specific binding of the radioligands by the tested drugs was analyzed to estimate the IC50 value by using the non-linear curve-fitting program Allfit [A. De Lean et al., Am. J. Physiol.

Another data set can be described thus: in vivo. The settings on record: mouse. How it is done:
20-30 g b.w., were obtained from Charles River, Italy. Animals were housed with free access to food and water and maintained on forced light-dark cycle at 22°-24° C. until the day of experiments.
The acute toxicity of synthesized compounds was evaluated in female Albino Swiss mice after intraperitoneal and oral administration. Four logarithmic scaled doses of the compounds were dissolved or suspended in 0.5% Methocel and administered in a volume of 10 ml/kg to groups of 4 mice/dose. Mortality was recorded 7 days after the administration.

The subject of data set [2] is dyastolic arterious pressure. As to the kind of experiment: Hypotensive activity in the normotensed anesthetized rat. Conditions: iv, endovenous administration, read-out: DE25 (dose which induces a lowering of 25% of the dyastolic arterious pressure). The class given is in vivo. How it is done:
(§1) Male Sprague Dawley rats (Crl: CD' BR) of 175-300 g b.w., male spontaneously hypertensive rats, Okamoto strain, female Albino Swiss mice [Crl:CD-1 (ICR) BR] 20-30 g b.w., were obtained from Charles River, Italy. Animals were housed with free access to food and water and maintained on forced light-dark cycle at 22°-24° C. until the day of experiments.
(§2) Evaluation of the antihypertensive activity in chateterized spontaneously hypertensive rat (SH) chronic awake and of the hypotensive activity in the normotensed anesthethized rat
Normotensed rats with were prepared surgically at the moment of the test, after anesthesia with pentobarbital. Suitable chateters were introduced in the left carotid artery and the right jugular vein. The arterious chateter end was connected to a pressure transductor which sends the signal to a polygraph preamplifier. About 30' before the administration the arterious pressure was monitored and the registration of the parameters was performed after the administration, at various time according to the test protocol.
For the endovenous administration the administered volum was 0.5-1 ml/Kg, while for the oral administration was 5 ml/Kg.
Evaluation of data: in so far as the espression of the results is concerned, the pressure data were reported as percentage of the variation in respect to the base values.

Data set [3] has as its system dyastolic arterious pressure. Put plainly: Antihypertensive activity in catheterized awake spontaneously hypertensive rat (SHR). The class given is in vivo. Conditions: oral administration, read-out: DE25 (dose which induces a lowering of 25% of the dyastolic arterious pressure). As for the experimental part: as §1, §2
The SH rats are surgically prepared at least 24 hours before the test. The surgical operation was performed under neuroleptoanalgesia or barbituric anesthesia; the right carotid artery was exposed and a chateter suitable in dimensions and material was introducted in the vessel up to the aortic arch. […]
For endovenous administrations a second chateter similar to the one above described was introduced during the surgical operation into the left jugular vein and brought to the exterior as the arterious chateter. […] About 30' before administration the arterious pressure was monitored and the registration of the parameters was performed after administration at different times according to the test protocol. […]

A further data set addresses T1, cloned α1A adrenoceptor (Bos taurus, UniProt P18130).
T1 construct: expressed in transfected cells; host or cells: COS-7 (transient)
T1 sequence (P18130 1-466): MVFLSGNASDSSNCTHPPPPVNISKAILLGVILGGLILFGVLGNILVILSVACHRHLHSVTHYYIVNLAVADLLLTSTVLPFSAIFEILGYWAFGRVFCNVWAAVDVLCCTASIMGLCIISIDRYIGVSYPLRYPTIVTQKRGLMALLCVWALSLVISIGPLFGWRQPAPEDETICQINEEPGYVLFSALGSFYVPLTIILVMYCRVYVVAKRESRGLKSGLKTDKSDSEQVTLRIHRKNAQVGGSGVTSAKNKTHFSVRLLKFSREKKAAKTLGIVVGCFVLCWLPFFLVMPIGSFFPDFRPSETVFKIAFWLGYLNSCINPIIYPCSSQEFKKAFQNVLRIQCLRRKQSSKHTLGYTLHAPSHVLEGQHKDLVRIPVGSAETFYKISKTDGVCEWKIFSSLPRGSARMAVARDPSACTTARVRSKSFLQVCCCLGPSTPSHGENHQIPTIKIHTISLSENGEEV
Put plainly: Radioligand binding, cloned α1A adrenoceptor (previously α1C) expressed in COS-7 cells. Conditions: bovine brain α1A in COS-7 cells; mean of 2-4 experiments in triplicate, agreed within 10%. How it is done:
(§3) Cloned animal α1 adrenoceptors
(§4) COS-7 cells were grown as monolayers in Dulbecco's modified Eagle's medium (DMEM), supplemented with 25 mM glucose, 10% bovine calf serum, 100 units/ml penicillin and 100 μg/ml streptomicyn sulfate.
(§5) Transfected cells from colture flask were washed two times with 5 ml phosphate buffered saline (PBS), scraped into 2 ml of 5 mM Tris-HCl, pH 7.4, containing 5 mM EDTA and 10 μM leupeptin, and lysed by sonication. The cell lysates were pelleted at 30000xg for 15 min at 4° C. and washed three times with 10 ml ice-cold 50 mM Tris-HCl, pH 7.4. Membranes were resuspended in 50 mM Tris-HCl, pH 7.4, containing 10 μM pargyline and 0.1% ascorbic acid, quickly frozen and stored at -70° C. until utilized.
(§6) Radioligand binding assays
Non-specific binding was determined in presence of 100 μM phentolamine. The reaction mixture was incubated for 30 min at 25° C. and then stopped by the addition of ice cold Tris-HCl buffer and rapid filtration through 0.2% polyethyleneimine pretreated Whatman GF/B fiber filters using Brandel cell harvester. The filters were then washed with 3×3 ml of ice-cold buffer and the radioactivity retained on the filters was counted in 10 ml of Filter Count (Packard) in a liquid scintillation spectrometer with a counting efficacy of 40%.
The inhibition of specific binding of the radioligands by the tested drugs was analyzed to estimate the IC50 value by using the non-linear curve-fitting program Allfit [A. De Lean et al., Am. J. Physiol.

For a further data set, the target named is T2, cloned α1D adrenoceptor (Rattus norvegicus, UniProt P23944).
T2 construct: expressed in transfected cells; host or cells: COS-7 (transient)
T2 sequence (P23944 1-561): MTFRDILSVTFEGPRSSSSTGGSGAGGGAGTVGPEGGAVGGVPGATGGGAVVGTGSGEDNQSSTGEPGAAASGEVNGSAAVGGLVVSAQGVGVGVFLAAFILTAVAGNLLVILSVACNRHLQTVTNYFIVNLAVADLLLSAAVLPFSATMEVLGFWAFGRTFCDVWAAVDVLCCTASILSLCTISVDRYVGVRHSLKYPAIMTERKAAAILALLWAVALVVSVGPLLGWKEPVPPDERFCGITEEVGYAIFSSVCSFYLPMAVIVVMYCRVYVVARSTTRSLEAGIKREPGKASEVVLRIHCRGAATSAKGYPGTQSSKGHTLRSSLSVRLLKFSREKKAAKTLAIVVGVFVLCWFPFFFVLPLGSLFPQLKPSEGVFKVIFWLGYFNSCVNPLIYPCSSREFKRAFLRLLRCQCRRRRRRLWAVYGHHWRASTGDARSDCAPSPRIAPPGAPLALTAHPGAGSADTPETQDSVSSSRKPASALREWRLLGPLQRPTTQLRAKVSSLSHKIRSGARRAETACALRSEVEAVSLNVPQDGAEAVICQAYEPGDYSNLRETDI
Put plainly: Radioligand binding, cloned α1D adrenoceptor (previously α1A/D) expressed in COS-7 cells. The settings on record: rat brain α1D in COS-7 cells; mean of 2-4 experiments in triplicate, agreed within 10%. How it is done: as §3, §4, §5, §6
Non-specific binding was determined in presence of 100 μM phentolamine. […] The filters were then washed with 3×3 ml of ice-cold buffer and the radioactivity retained on the filters was counted in 10 ml of Filter Count (Packard) in a liquid scintillation spectrometer with a counting efficacy of 40%.
The inhibition of specific binding of the radioligands by the tested drugs was analyzed to estimate the IC50 value by using the non-linear curve-fitting program Allfit [A. De Lean et al., Am. […]

[4] abbreviates: ip, mice, intraperitoneal, mortality 7 days after administration, read-out: DL50 i.p.
[5] abbreviates: mice, oral, mortality 7 days after administration, read-out: DL50 p.o.

Structures can show the parent of a compound that is named as a salt. Where two headings read alike, the source gives them in different places. Bounds are passed on as bounds.

Turning to `COc1cc2nc(N3CCN(C(=O)CCCNC(=O)OCc4ccccc4)CC3)nc(N)c2cc1OC` [Example 6, 4-Amino-6,7-dimethoxy-2-{4-[(4-benzyloxycarbonylamino)butirryl]-1-piperazinyl}-quinazoline hydrochloride . 1.5 H2 O], in data set [1], the IC50 is 29 nM. Further, the LD50 at 168 h is > 1000 mg/kg in the data set “in vivo” (setting [4]) and > 3000 mg/kg in the data set “in vivo” (setting [5]).

In the case of `COc1cc2nc(N(C)Cc3ccccc3)nc(N)c2cc1OC` [Example 28, 4-Amino-6,7-dimethoxy-2-(N-benzyl-N-methylamino)-guinazoline hydrochloride], the IC50 in data set [1] came out at 70 nM. Further, the LD50 at 168 h in the data set “in vivo” (setting [4]) was determined as 89 mg/kg; in “in vivo” (setting [5]), 293 mg/kg.

As to `COc1cc2nc(N3CCN(C(=O)CC(=O)c4ccccc4)CC3)nc(N)c2cc1OC` [Example 13, 4-Amino-6,7-dimethoxy-2-[4-(2-benzoylacetyl)-1-piperazinyl]-quinazoline], the IC50 in data set [1] was found to be 7 nM. Besides, the LD50 at 168 h in “in vivo” (setting [4]) is 142 mg/kg; in “in vivo” (setting [5]), > 3000 mg/kg. Besides, the ED25 in data set [2] was found to be 0.056 mg/kg; in data set [3], 2.42 mg/kg.

For the compound `COc1cc2nc(N3CCN(C(=O)CCC(=O)c4ccccc4)CC3)nc(N)c2cc1OC.Cl.O` [Example 15, 4-Amino-6,7-dimethoxy-2-{4-[(3-benzoyl)propionyl]-1-piperazinyl}-quinazoline hydrochloride hydrate], the IC50 in data set [1] was 15 nM. The values for the LD50 at 168 h in the data set “in vivo” (setting [4]) and in the data set “in vivo” (setting [5]) were > 1000 mg/kg and > 3000 mg/kg, respectively.

In the case of `COc1cc2nc(N3CCN(C(=O)CCCN)CC3)nc(N)c2cc1OC` [Example 8, 4-Amino-6,7-dimethoxy-2-[4-(4-aminobutirryl)-1-piperazinyl]-guinazoline dihydrobromide . 0.25 H2 O], the IC50 in data set [1] was 47 nM. Also, the LD50 at 168 h was 219 mg/kg in the data set “in vivo” (setting [4]) and > 3000 mg/kg in “in vivo” (setting [5]).

Consider `COc1cc2nc(N3CCN(Cc4ccccc4)CC3)nc(N)c2cc1OC` [Example 1, 4-Amino-6,7-dimethoxy-2-(4-benzyl-1-piperazinyl)-guinazoline bihydrochloride hemihydrate], for which the IC50 in data set [1] was determined as 32 nM. The values for the LD50 at 168 h in “in vivo” (setting [4]) and in “in vivo” (setting [5]) were 76 mg/kg and 301 mg/kg, respectively.

For the compound `COc1cc2nc(N3CCN(C(=O)CC(O)c4ccccc4)CC3)nc(N)c2cc1OC` (centres unmarked) [Example 14, 4-Amino-6,7-dimethoxy-2-[4-(3-hydroxy-3-phenylpropionyl)-1-piperazinyl]-quinazoline], the IC50 in data set [1] came out at 19 nM. For the same compound, the LD50 at 168 h in “in vivo” (setting [4]) was > 1000 mg/kg; in “in vivo” (setting [5]), > 3000 mg/kg.

As for `CCCCNC(=O)CC(=O)N1CCN(c2nc(N)c3cc(OC)c(OC)cc3n2)CC1.Cl` [Example 19, 4-Amino-6,7-dimethoxy-2-[4-(3-n-butylamino-3-oxopropionyl)-1-piperazinyl]-quinazoline hydrochloride], in data set [1], the IC50 turned out to be 96 nM. The LD50 at 168 h in “in vivo” (setting [4]) was 459 mg/kg; in “in vivo” (setting [5]), > 2000 mg/kg.

Regarding `COc1cc2nc(N3CCN(C(=O)C4CCCO4)CC3)nc(N)c2cc1OC` (centres unmarked) [Terazosin, reference compound], the IC50 on cloned α1A adrenoceptor is 66.6 nM; at cloned α1D adrenoceptor, 106 nM.

Regarding `COc1cc2nc(N3CCN(C(=O)CNC(=O)CNC(=O)OCc4ccccc4)CC3)nc(N)c2cc1OC` [Example 12, 4-Amino-6,7-dimethoxy-2-{4-[2-[2-(benzyloxycarbonylamino)-acetylamino]acetyl]-1-piperazinyl}-quinazoline hydrochloride hemihydrate], the IC50 in data set [1] was found to be 29 nM. Also, the LD50 at 168 h in “in vivo” (setting [4]) was 1130 mg/kg; in the data set “in vivo” (setting [5]) it was > 2000 mg/kg.

In the case of `COc1cc2nc(N(C)CCC(c3ccccc3)c3ccccc3)nc(N)c2cc1OC` [Example 29, 4-Amino-6,7-dimethoxy-2-(N-methyl-3,3-diphenylpropylamino)-guinazoline hydrochloride], in data set [1], the IC50 worked out at 85 nM. In addition, the results for the LD50 at 168 h in “in vivo” (setting [4]) and in “in vivo” (setting [5]) were 163 mg/kg and > 2000 mg/kg, respectively.

`COc1cc2nc(N3CCN(C(=O)NCCN(C)C)CC3)nc(N)c2cc1OC.Cl.Cl.O.O.O.O` [Example 10, 4-Amino-6,7-dimethoxy-2-{4-[(2-dimethylaminoethyl)amino-carbonyl]-1-piperazinyl}-quinazoline dihydrochloride tetrahydrate]: the IC50 in data set [1] was found to be 55 nM. Also, the LD50 at 168 h stood at 23 mg/kg in “in vivo” (setting [4]) and 1350 mg/kg in the data set “in vivo” (setting [5]).

As to `COc1cc2nc(N3CCN(C(=O)COc4c(OC)cccc4C(C)C)CC3)nc(N)c2cc1OC.Cl` [Example 24, 4-Amino-6,7-dimethoxy-2-{4-[(2-methoxy-6-isopropylphenoxy)acetyl]-1-piperazinyl}-quinazoline hydrochloride], the IC50 in data set [1] turned out to be 28 nM; on cloned α1A adrenoceptor, 17.2 nM. The figures for the LD50 at 168 h in “in vivo” (ip) and in “in vivo” (po) were 268 mg/kg and > 3000 mg/kg, respectively.
